The results in this text go back to ChEMBL document CHEMBL3352062, “Synthesis and biological evaluation of bile carboxamide derivatives with pro-apoptotic effect on human colon adenocarcinoma cell lines” (Eur J Med Chem, 2014).

Activity calls are given as the source filed them. No cut-off for these calls is given here.

Test [1] concerns HT-29. The experiment in a line: Antiproliferative activity against human HT-29 cells assessed as reduction in cell viability after 24 to 48 hrs by XTT assay. The format is functional, cell-based.
The subject of test [2] is DLD-1. The experiment in a line: Antiproliferative activity against human DLD1 cells assessed as reduction in cell viability after 24 to 48 hrs by XTT assay. The format is functional, cell-based.
Test [3] has as its system HCT-116. In words: Antiproliferative activity against human HCT116 cells assessed as reduction in cell viability after 24 to 48 hrs by XTT assay. The format is functional, cell-based.
Test [4] in a line: Cell cycle arrest in human HCT116 cells assessed as accumulation at G2-M phase at 30 uM after 24 hrs using propidium iodide by flow cytometry (reference value: 33.69 %). The format is functional, cell-based. The conditions noted are these: HCT-116.
Test [5] concerns HT-29. In words: Induction of apoptosis in human HT-29 cells assessed as APO2.7-positive cells at 30 uM after 24 hrs using propidium iodide by flow cytometry (reference value: 1.11 %). The format is functional.
Test [6] relates to HT-29. In words: Cell cycle arrest in human HT-29 cells assessed as accumulation at S phase at 30 uM after 24 hrs using propidium iodide by flow cytometry (reference value: 28.28 %). The format is functional.
Test [7] relates to HT-29. The experiment in a line: Antiproliferative activity against human HT-29 cells assessed as reduction in cell viability after 24 hrs by XTT assay. The format is functional, cell-based. The following applies: HT-29, 24 h.
Test [8] in a line: Antiproliferative activity against human DLD1 cells assessed as reduction in cell viability after 24 hrs by XTT assay. The format is functional, cell-based. The conditions noted are these: DLD-1, 24 h.
Test [9] is described as follows: Cell cycle arrest in human HCT116 cells assessed as accumulation at sub-G1 phase at 30 uM after 24 hrs using propidium iodide by flow cytometry (reference value: 1.78 %). The format is functional, cell-based. The following applies: HCT-116.
The nature of test [10]: Cell cycle arrest in human DLD1 cells assessed as accumulation at sub-G1 phase at 30 uM after 24 hrs using propidium iodide by flow cytometry (reference value: 1.73 %). The conditions noted are these: DLD-1. The format is functional, cell-based.
Test [11] is described as follows: Cell cycle arrest in human HCT116 cells assessed as accumulation at G0-G1 phase at 30 uM after 24 hrs using propidium iodide by flow cytometry (reference value: 42.61 %). The format is functional, cell-based. The following applies: HCT-116.
Test [12] has as its system HCT-116. In words: Induction of apoptosis in human HCT116 cells assessed as APO2.7-positive cells at 30 uM after 24 hrs using propidium iodide by flow cytometry (reference value: 1.19 %). The format is functional.
Test [13] deals with HT-29. The experiment in a line: Cell cycle arrest in human HT-29 cells assessed as accumulation at sub-G1 phase at 30 uM after 24 hrs using propidium iodide by flow cytometry (reference value: 3.18 %). The format is functional.
The subject of test [14] is HCT-116. The experiment in a line: Induction of apoptosis in human HCT116 cells assessed as PARP cleavage at 30 uM after 24 hrs using propidium iodide by Western blot analysis. The format is functional, cell-based.
Test [15] is described as follows: Cell cycle arrest in human DLD1 cells assessed as accumulation at S phase at 30 uM after 24 hrs using propidium iodide by flow cytometry (reference value: 21.08 %). The format is functional, cell-based. The following applies: DLD-1.
Test [16] is described as follows: Cell cycle arrest in human HCT116 cells assessed as accumulation at S phase at 30 uM after 24 hrs using propidium iodide by flow cytometry (reference value: 18.80 %). The following applies: HCT-116. The format is functional, cell-based.
Test [17] has as its system HT-29. In words: Cell cycle arrest in human HT-29 cells assessed as accumulation at G0-G1 phase at 30 uM after 24 hrs using propidium iodide by flow cytometry (reference value: 43.78 %). The format is functional.
Test [18] relates to DLD-1. In words: Induction of apoptosis in human DLD1 cells assessed as APO2.7-positive cells at 30 uM after 24 hrs using propidium iodide by flow cytometry (reference value: 1.01 %). The format is functional.
Test [19] in a line: Antiproliferative activity against human HCT116 cells assessed as reduction in cell viability after 24 hrs by XTT assay. The format is functional, cell-based. The following applies: HCT-116, 24 h.
Test [20] deals with DLD-1. The experiment in a line: Induction of apoptosis in human DLD1 cells assessed as PARP cleavage at 30 uM after 24 hrs using propidium iodide by Western blot analysis. The format is functional, cell-based.
The test system of test [21] is HT-29. The experiment in a line: Cell cycle arrest in human HT-29 cells assessed as accumulation at G2-M phase at 30 uM after 24 hrs using propidium iodide by flow cytometry (reference value: 21.66 %). The format is functional.
Test [22] can be described thus: Cell cycle arrest in human DLD1 cells assessed as accumulation at G2-M phase at 30 uM after 24 hrs using propidium iodide by flow cytometry (reference value: 39.85 %). The format is functional, cell-based. The following applies: DLD-1.
Test [23] in a line: Cell cycle arrest in human DLD1 cells assessed as accumulation at G0-G1 phase at 30 uM after 24 hrs using propidium iodide by flow cytometry (reference value: 35.37 %). The format is functional, cell-based. The following applies: DLD-1.
Test [24] relates to HT-29. In words: Induction of apoptosis in human HT-29 cells assessed as PARP cleavage at 30 uM after 24 hrs using propidium iodide by Western blot analysis. The format is functional, cell-based.

For `C[C@H](CCC(=O)N1CCN(C(c2ccccc2)c2ccc(Cl)cc2)CC1)[C@H]1CC[C@H]2[C@@H]3[C@@H](O)C[C@@H]4C[C@H](O)CC[C@]4(C)[C@H]3CC[C@]12C` (stereo not given in full), the Activity entry with HT-29 [1], in the test with DLD-1 [2] and in the test on HCT-116 [3] was “Dose-dependent effect” throughout.
Consider `C[C@H](CCC(=O)N1CCN(C(c2ccccc2)c2ccc(Cl)cc2)CC1)[C@H]1CC[C@H]2[C@@H]3CC[C@@H]4C[C@H](O)CC[C@]4(C)[C@H]3C[C@H](O)[C@]12C` (stereo not given in full), for which the Activity result in the test with HT-29 [1], in the test with DLD-1 [2] and in the test with HCT-116 [3] was “Dose-dependent effect” throughout.
For the molecule `C[C@H](CCC(=O)N1CCN(Cc2ccccc2)CC1)[C@H]1CC[C@H]2[C@@H]3CC[C@@H]4C[C@H](O)CC[C@]4(C)[C@H]3CC[C@]12C`, the Activity result in the test with HT-29 [1], in the test with DLD-1 [2] and in the test with HCT-116 [3] was “Dose-dependent effect” each time.
Regarding `C[C@H](CCC(=O)N1CCN(Cc2ccccc2)CC1)[C@H]1CC[C@H]2[C@@H]3CC[C@@H]4C[C@H](O)CC[C@]4(C)[C@H]3C[C@H](O)[C@]12C`, the Activity was 28.9% in test [4]; 1.26% with HT-29 [5]; 15.67% with HT-29 [6]; 14.8% in [9]; 14.3% in test [10]; 33.6% in [11]. The Activity came out at 4.59% in the test on HCT-116 [12]; 34.81% in the test on HT-29 [13]; 15.4% in [15]; 18.4% in test [16]; 36.89% in the test on HT-29 [17]; 2.49% in the test on DLD-1 [18]. Further, the Activity with HT-29 [21] stood at 11.14%; in [22], 39%; in test [23], 28.5%. Further, the results for the IC50 (in the test with HT-29 [7]; in test [8]; in test [19]) were 32 µM, 26 µM and 22 µM, respectively. Moreover, the outcome with HCT-116 [14], in the test on DLD-1 [20] and in the test on HT-29 [24] was Active.
`C[C@H](CCC(=O)N1CCN(C/C=C/c2ccccc2)CC1)[C@H]1CC[C@H]2[C@@H]3[C@H](O)C[C@@H]4C[C@H](O)CC[C@]4(C)[C@H]3CC[C@]12C`: the Activity in [4] was 11.3%; in the test on HT-29 [5] it was 8.79%; in the test with HT-29 [6] it was 18.65%; in [9], 31.2%; in test [10] it was 49.8%; in [11] it was 33%. Further, the Activity amounted to 37.73% in the test on HCT-116 [12]; 48.38% in the test with HT-29 [13]; 18.8% in test [15]; 22.5% in test [16]; 28.49% with HT-29 [17]; 34.87% in the test with DLD-1 [18]. In addition, the Activity with HT-29 [21] amounted to 4.77%; in test [22], 6.22%; in test [23] it was 24%. The IC50 in the test with HT-29 [7] came out at 35 µM; in test [8], 36 µM; in test [19], 34 µM. The result in the test on HCT-116 [14], with DLD-1 [20] and in the test on HT-29 [24] was Active.
For the molecule `C[C@H](CCC(=O)N1CCN(C(c2ccc(F)cc2)c2ccc(F)cc2)CC1)[C@H]1CC[C@H]2[C@@H]3[C@H](O)C[C@@H]4C[C@H](O)CC[C@]4(C)[C@H]3CC[C@]12C`, the Activity entry in the test on HT-29 [1], in the test with DLD-1 [2] and with HCT-116 [3] was “Dose-dependent effect” in each case.
`C[C@H](CCC(=O)N1CCN(Cc2ccccc2)CC1)[C@H]1CC[C@H]2[C@@H]3[C@H](O)C[C@@H]4C[C@H](O)CC[C@]4(C)[C@H]3CC[C@]12C`: the Activity turned out to be 26.6% in [4]; 8.57% in the test with HT-29 [5]; 17.11% with HT-29 [6]; 13% in test [9]; 10.7% in test [10]; 36.9% in test [11]. Further, the Activity is 20.33% in the test with HCT-116 [12]; 18.13% in the test on HT-29 [13]; 14.1% in test [15]; 17.8% in test [16]; 49.08% in the test on HT-29 [17]; 22.54% in the test with DLD-1 [18]. Moreover, the values for the Activity (in the test with HT-29 [21]; in [22]; in test [23]) were 13.63%, 32.2% and 40%, respectively. Besides, the half-inhibitory concentration (IC50) with HT-29 [7] is 36 µM; in [8] it was 33 µM; in test [19], 23 µM. Moreover, the result in the test with HCT-116 [14], with DLD-1 [20] and with HT-29 [24] was Active.
